{"source": "patent US20070135453A1", "about": "“6-(2,4,6-Trihalophenyl)triazolopyrimidines, their preparation and their use for controlling harmful fungi, and compositions comprising these compounds” (BASF Aktiengesellschaft, priority 2003, published 2007)", "key": {"[1]": {"tested_on": "Botrytis cinerea", "assay": "Activity against gray mold on bell-pepper leaves caused by Botrytis cinerea, protective application", "assay_type": "in vivo", "conditions": "250 ppm, protective spray, assessed after 5 days, untreated plants 100% infected", "method": "(§1) The active compounds were prepared as a stock solution with 25 mg of active compound which was made up to 10 ml using a mixture of acetone and/or DMSO and the emulsifier Uniperol® EL (wetting agent having emulsifying and dispersing action based on ethoxylated alkylphenols) in a volume ratio of solvent/emulsifier of 99 to 1.\n(§2) The mixture was then made up with water to 100 ml. This stock solution was diluted with the solvent/emulsifier/water mixture described to the concentration of active compounds stated below.\nUse Example 2—Activity Against Gray Mold on Bell-Pepper Leaves Caused by Botrytis cinerea, Protective Application\nBell-pepper seedlings of the cultivar “Neusiedler Ideal Elite” were, after 2 to 3 leaves were well developed, sprayed to runoff point with an aqueous suspension having the concentration of active compounds stated below. The next day, the treated plants were inoculated with a spore suspension of Botrytis cinerea which contained 1.7×10^6 spores/ml in a 2% aqueous biomold solution. The test plants were then placed in a dark acclimatized chamber at 22 to 24° C. and high atmospheric humidity. After 5 days, the extent of the fungal infection on the leaves could be determined visually in %."}, "[2]": {"tested_on": "Pyrenophora teres", "assay": "Activity against net blotch of barley caused by Pyrenophora teres, protective application", "assay_type": "in vivo", "conditions": "250 ppm, protective spray, assessed after 6 days, untreated plants 90% infected", "method": "as §1, §2\nUse Example 1—Activity Against Net blotch of Barley Caused by Pyrenophora teres, Protective Application\nLeaves of potted barley seedlings of the cultivar “Hanna” were sprayed to runoff point with an aqueous suspension having the concentration of active compounds stated below. 24 hours after the spray coating had dried on, the test plants were inoculated with an aqueous spore suspension of Pyrenophora [syn. Drechslera]teres, the net blotch pathogen. The test plants were then placed in a greenhouse at temperatures between 20 and 24° C. and 95 to 100% relative atmospheric humidity. After 6 days, the extent of the development of the disease was determined visually in % infection of the entire leaf area."}}, "data": [{"compound": "CC1CCN(c2c(-c3c(Cl)cc(Cl)cc3Cl)c(C#N)nc3ncnn23)CC1", "note": "[Example 1, 5-cyano-6-(2,4,6-trichlorophenyl)-7-(4-methylpiperidinyl)-1,2,4-triazolo[1,5a]pyrimidine]", "values": [{"measurement": "fungal infection on the leaves", "setting": "[1]", "result": "about 7%"}, {"measurement": "infection of the entire leaf area", "setting": "[2]", "result": "about 1%"}]}]}
